PubChem BioAssay AID1645864 (Buhrlage Lab, Dana-Farber Cancer Institute and Novartis …, 2021)
Active and inactive are the calls of the source.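 How the source made its calls: active means maximal inhibition of USP17 at or above 30% in the confirmation dose-response, a value not among the printed readouts; inactive means the rest.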

These compounds were tested against Ubiquitin carboxyl-terminal hydrolase 17-like protein 5 (Homo sapiens) (UniProt A8MUK1) (assay: ubiquitin-specific protease 17 DUB inhibitors, concentration-effect assay, cell-free, verification of initial screening actives (AID 1645864)). Settings: purified USP17, ubiquitin-rhodamine cleavage fluorescence, 3 h.
Chain of Ubiquitin carboxyl-terminal hydrolase 17-like protein 5 (Homo sapiens) (A8MUK1 whole entry, looked up): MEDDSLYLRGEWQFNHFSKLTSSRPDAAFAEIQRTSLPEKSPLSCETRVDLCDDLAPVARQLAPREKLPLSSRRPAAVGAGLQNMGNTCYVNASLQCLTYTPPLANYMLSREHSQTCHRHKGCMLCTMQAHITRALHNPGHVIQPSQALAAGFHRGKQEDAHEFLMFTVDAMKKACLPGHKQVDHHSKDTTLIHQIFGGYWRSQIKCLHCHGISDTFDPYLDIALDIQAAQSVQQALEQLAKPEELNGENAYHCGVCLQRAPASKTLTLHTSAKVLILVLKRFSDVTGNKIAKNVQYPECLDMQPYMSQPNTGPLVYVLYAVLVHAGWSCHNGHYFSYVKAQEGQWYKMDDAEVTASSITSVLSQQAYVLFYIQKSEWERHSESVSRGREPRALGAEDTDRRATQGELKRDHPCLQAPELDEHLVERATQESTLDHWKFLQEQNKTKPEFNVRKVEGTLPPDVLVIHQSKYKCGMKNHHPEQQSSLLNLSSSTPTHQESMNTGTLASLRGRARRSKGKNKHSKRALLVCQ
With COc1ccc(C2CC(c3ccccc3)N(C(=O)C3CC3)c3ncnn32)cc1 (centres undefined) the IC50 was > 50 µM (inactive). Work on Cc1cc(NC(=O)c2[nH]nc3c2CCc2ccccc2-3)no1 yielded an IC50 of 3.28 µM. O=C(CSc1ncnc2c1sc1cccc(F)c12)N1CCCCCC1 was tested, and the IC50 was > 50 µM (inactive). In the case of COc1ccc(C2CC(=O)Nc3ccc4ccccc4c32)c(OC)c1OC (centres undefined), the IC50 is reported as 40.4 µM. Work on COc1ccc(NC(=O)C2C3C=CC4(O3)C2C(=O)N(CCc2ccccc2)C4C(=O)NC2CCCCC2)cc1 (centres undefined) yielded an IC50 of 26.2 µM. In the case of O=C(c1cscn1)N1CCC2(CC1)CC1(CO2)Nc2ccccc2-n2cccc21 (centres undefined), the IC50 is reported as > 50 µM (inactive). CCN(CC)C(=O)c1sc(NC(=O)/C=C/c2c(F)cccc2Cl)c(C#N)c1C was tested, and the IC50 was 2.29 µM. Compound CCOc1ccc2cc3c(nc2c1)OC(=O)N(Cc1ccc(C)o1)C3 has an IC50 of 2.44 µM. Work on Cc1cc(C)nc(-n2nc(C)c3c2NC(=O)CSC3c2ccc(F)cc2F)n1 (centres undefined) yielded an IC50 of 37.5 µM. Cc1nc(-c2ccccn2)sc1C(=O)Nc1ccc(C#N)cc1 was tested, and the IC50 was > 50 µM (inactive). CCc1nc(SCC(=O)Nc2ccccc2Cl)c2oc3ccccc3c2n1 was tested, and the IC50 was 0.0527 µM. Cc1cc(C)n(-c2ccc(C(=O)NCc3ccc(F)cc3)cn2)n1 was tested, and the IC50 was 33.9 µM. For CN(C(=O)c1cccc2cccnc12)c1nc2c(s1)CCc1occc1-2, the IC50 was 24.9 µM. CCc1ccc(NC(=O)Cc2nnc(-c3ccc4ncccc4c3)o2)cc1 gave an IC50 of 35.5 µM. For O=C(Nc1cccn(Cc2c(Cl)cccc2Cl)c1=O)c1ccccc1[N+](=O)[O-], the IC50 was 37 µM. Cc1ccc(NC(=O)CCC(=O)Nc2ccc3nc(N4CCCCC4)cc(C)c3c2)c(Br)c1 was tested, and the IC50 was 49.7 µM. CC1=C(c2ccc(C)c(C)c2)S(=O)(=O)NC1=NCC(=O)NCCc1ccc(C)cc1 gave an IC50 of 46.1 µM. In the case of Cc1cccc(COc2ccc(C3SCC(=O)Nc4n[nH]c(C)c43)cc2)c1 (centres undefined), the IC50 is reported as 20.6 µM. In the case of CC(=O)Nc1ccc(Cc2nc(-c3ccc4c(c3)nc(C)c(=O)n4C3CCCC3)no2)cc1, the IC50 is reported as > 50 µM (inactive). O=C1CC(c2ccco2)Cc2[nH]c(=O)c(-c3nc(-c4ccc(Cl)cc4)cs3)cc21 (centres undefined) was tested, and the IC50 was > 50 µM (inactive). With O=C(Nc1ccc2c(c1)OCO2)C1CCN(Cc2nc3ccccc3s2)CC1 the IC50 was > 50 µM (inactive). In the case of COc1ccc(C)cc1NC(=O)C1CC(=O)Nc2nc(SCc3ccccc3)nn21 (centres undefined), the IC50 is reported as 18.9 µM. O=C(CSc1nnc2n1CCCCC2)Nc1ccc2[nH]c(=O)[nH]c2c1 was tested, and the IC50 was 12 µM. COc1ccc(NC(=O)c2ccc(-n3nnnc3SC)cc2)cc1Cl was tested, and the IC50 was > 50 µM (inactive). For O=C(NCc1ccccc1)c1ccc2c(=O)n(-c3ccccc3)c(=O)[nH]c2c1, the IC50 was 21.8 µM. Work on O=C(Cc1noc2ccccc12)NCC(=O)Nc1ccc(Cl)cc1 yielded an IC50 of 18.1 µM. With O=C(CCCC(=O)c1ccccc1)Nc1ccc(F)cc1 the IC50 was 29.7 µM. In the case of COc1ccc(S(=O)(=O)N2CCN3Cc4ccccc4N(C)CC3C2)cc1 (centres undefined), the IC50 is reported as > 50 µM (inactive). CC1=C(c2ccc(F)cc2)S(=O)(=O)NC1=NCC(=O)Nc1ccc(F)cc1F showed an IC50 of 25.9 µM. In the case of CSc1nc(Cc2ccc(Cl)cc2)nc2ccccc12, the IC50 is reported as > 50 µM (inactive). Work on Cc1ccc(-n2c(-c3ccccc3)cn3c4c(=O)[nH]c(=O)n(C)c4nc23)cc1C yielded an IC50 of 0.289 µM. Work on Cc1ccc(NC(=O)/C=C/c2cccc(C(F)(F)F)c2)c(O)c1 yielded an IC50 of 8.3 µM. Work on CCCC(=O)Nc1nc2ccc(CCC(=O)NCc3ccc(F)cc3)cc2s1 yielded an IC50 of 25 µM. In the case of O=C(/C=C/c1ccc(F)cc1)Nc1ccc2c(c1)OCCO2, the IC50 is reported as > 50 µM (inactive). In the case of CC(=O)c1cccc(NC(=O)c2ccc(-c3csc(C)n3)cc2)c1, the IC50 is reported as > 50 µM (inactive). COc1cc(OC)cc(-n2c(=O)c3sccc3n(CC(=O)Nc3ccc(C)cc3)c2=O)c1 was tested, and the IC50 was 10.1 µM. For COc1ccc(C(C)NC(=O)c2cnc(-c3ccccc3)nc2-c2ccncc2)cc1 (centres undefined), the IC50 was > 50 µM (inactive). In the case of CC(=O)CN1CC2(CCN(Cc3ccc(F)cc3)CC2)COc2ccccc2S1(=O)=O, the IC50 is reported as > 50 µM (inactive). Work on O=C(Cn1c(=O)n(CC(=O)NC2CCCC2)c(=O)c2ccccc21)Nc1cc(Cl)ccc1Cl yielded an IC50 of 4.66 µM. In the case of N#C/C(=C/c1sc(N2CCOCC2)nc1-c1ccccc1)c1ccccn1, the IC50 is reported as > 50 µM (inactive). COc1ccc(NC(=O)CN2C(=O)c3ccccc3Sc3ccc(C(=O)N4CCCC4)cc32)cc1OC showed an IC50 of 26.1 µM. For Cc1ccc2[nH]c3c(=O)n(CC4CCCO4)cnc3c2c1 (centres undefined), the IC50 was 21.5 µM. Compound O=C(CNc1nc(Nc2ccccc2F)nc(Nc2ccccc2F)n1)Nc1ccccc1 has an IC50 of 35.5 µM. With CCCOc1ccc(C(=O)Nc2ccc(S(=O)(=O)Nc3cc(C)nc(C)n3)cc2)cc1 the IC50 was > 50 µM (inactive). For COc1ccc(C(C)=O)cc1CC(=O)Nc1nc2ccccc2[nH]1, the IC50 was > 50 µM (inactive). In the case of O=C(Nc1nc2ccccc2s1)c1ccc2c(c1)C(=O)N(Cc1cccnc1)C2=O, the IC50 is reported as 4.06 µM. Work on CC1CC[C@]2(NC1)O[C@H]1C[C@H]3[C@@H]4CC[C@H]5C[C@@H](O[C@@H]6O[C@H](CO)[C@H](O[C@@H]7O[C@H](CO)[C@@H](O)[C@H](O[C@@H]8OC[C@@H](O)[C@H](O)[C@H]8O)[C@H]7O[C@@H]7O[C@H](CO)[C@@H](O)[C@H](O)[C@H]7O)[C@H](O)[C@H]6O)CC[C@]5(C)[C@H]4CC[C@]3(C)[C@H]1[C@@H]2C (some centres undefined) yielded an IC50 of 40 µM. Work on Cc1c(C)c2ccc(OCC(=O)NCc3ccncc3)c(C)c2oc1=O yielded an IC50 of 41.8 µM. COCCNC(=O)c1ccc(-c2ccc(N3CCCCC3)nc2)cc1 was tested, and the IC50 was 26.8 µM. With Fc1ccc(CN2CCc3nc4cccnc4cc3C2)cc1 the IC50 was > 50 µM (inactive). For COc1ccccc1NS(=O)(=O)c1ccc2oc(SCC(=O)c3ccccc3)nc2c1, the IC50 was > 50 µM (inactive). In the case of O=C(NCCN1CCCC1)C1CCN(c2cnc(N3CCCCC3)nc2)CC1, the IC50 is reported as > 50 µM (inactive). CC(C)Oc1ccc(C(=O)Nc2cccc(S(=O)(=O)N3CCCC3)c2)cc1 was tested, and the IC50 was > 50 µM (inactive). For CCCc1nc2sc3c(NCCc4ccc(OC)c(OC)c4)ncnc3c2c2c1CCC2, the IC50 was > 50 µM (inactive). For O=C(Cn1nc2ccc(C(=O)NCc3ccccc3)cn2c1=O)Nc1ccc2c(c1)OCO2, the IC50 was 45.1 µM. COc1ccc(CCn2cnc3c([nH]c4ccccc43)c2=O)cc1 showed an IC50 of 2.98 µM. CN1CCN(C(=O)c2cc(-c3ccn(CC4CC4)n3)n3ccccc23)CC1 was tested, and the IC50 was > 50 µM (inactive). For Cc1nc(Nc2c3ccccc3nc3ccccc23)sc1C, the IC50 was > 50 µM (inactive). In the case of COc1ccccc1NC(=O)c1cc2c(C)nn(Cc3ccccc3)c2s1, the IC50 is reported as 29.9 µM. With COc1cccc(/C=C/C(=O)Nc2ccc(N3CCOCC3)cc2)c1OC the IC50 was > 50 µM (inactive). CC(C)CCCCCCCCCCC(=O)N(C)[C@H](CO)C(=O)N[C@H](C)C(=O)NCC(=O)N(C)C1C(=O)N[C@@H](C)C(=O)NC(C(=O)O)Cc2ccc(O)c(c2)-c2cc1ccc2O (some centres undefined) was tested, and the IC50 was > 50 µM (inactive). Compound O=C(CC1C(=O)Nc2nc(-c3ccccc3)nn21)Nc1cccc2ccccc12 (centres undefined) has an IC50 of 12.2 µM. In the case of CC(C)c1nc2sc3c(N(CCO)CCO)ncnc3c2c2c1COC(C)(C)C2, the IC50 is reported as > 50 µM (inactive). COc1ccc(-c2cc3nc([C@H](C)NC(=O)Cc4cccc(F)c4)nn3cn2)cc1 gave an IC50 of 3.75 µM. With CCn1c(=O)c2ccccc2n(Cc2nc(-c3ccccc3OC)no2)c1=O the IC50 was > 50 µM (inactive). With O=C(Nc1cccc(S(=O)(=O)N2CCCC2)c1)c1ccc2c(=O)n3c(nc2c1)CCCCC3 the IC50 was > 50 µM (inactive). COc1cccc(N2CCN(C(=O)Nc3ccc4c(c3)NC(=O)CO4)CC2)c1 showed an IC50 of 26.6 µM. CN1CCN(c2ncnc3c2oc2ccc(Cl)cc23)CC1 was tested, and the IC50 was > 50 µM (inactive). For COc1ccc(NC(=O)Cn2cc(C(=O)c3ccc(C)cc3)c(=O)c3ccccc32)cc1, the IC50 was 1.98 µM.
